Results taken from US20150141381A1, “TETRACYCLINE COMPOUNDS HAVING TARGET THERAPEUTIC ACTIVITIES” (Paratek Pharmaceuticals, Inc., priority 2001, published 2015).
Where two headings read alike, the source gives them in different places.

Legend:
E. coli mL308 225 = test: In Vitro Anti-Bacterial Activity Assay (MIC), gram negative; type: cell-based; settings: Escherichia coli, ML308225, 18 h
[1] = system: nitric oxide synthesis in the J774 cell line; test: Lipopolysaccharide Stimulation of Macrophage Assay (LSM Assay), inhibition of nitric oxide; type: cell-based; settings: for Nitrite: inhibition of nitric oxide synthesis, LPS (100 ng/ml) stimulated J774 cells, nitrite by Greiss Reaction, test compound 56 μg/ml; for Nitrite (inhibition of nitric oxide synthesis): LPS-stimulated J774 cells, Table 3 (Continued) key
Description: This assay was used to determine the anti-inflammatory effect of tetracycline compounds of the invention by determining the modulation of nitric oxide, interleukin-10 and interleukin-12 synthesis in the J774 cell line, according to a literature procedure (D'Agostino P. et al. Int Immunopharmacol. 2001 September; 1(9-10):1765-76). J774.2 cells were stimulated with 100 ng/ml lipopolysaccharide (LPS). Nitrite, the spontaneous degradation product of nitric oxide, is measured in cell supernatants using the Greiss Reaction. In the experimental conditions, test tetracycline compounds were added 30 minutes prior to LPS stimulation. Cytotoxicity is determined using Resazurin metabolism. On the first day, a 96-well black-walled plate (except for the bottom row) was seeded with 100 μl of a 2.5×10^6 cells/ml suspension and incubated for two hours at 37° C. and 5% CO2. Towards the end of the two hour incubation period, test compounds were prepared at a concentration of 139 μg/ml, in 1.25% DMSO, a 2.5× concentration ready for addition to the cells.
At the end of the two hour incubation period, 80 μl of each of the test tetracycline compound solutions were added to the cell plates to make a final concentration of 56 μg/ml. Next, 80 μl of 1.25% DMSO in media was added to the negative control wells. Then, 80 μl of media was added to the positive control wells. The plate was then incubated for half an hour at 37° C., 5% CO2. A 10× working solution of LPS was prepared at a concentration of 1 μg/ml LPS.
After the half hour incubation period, 20 μl of LPS (1 μg/ml) in media was added to half of the test and control wells to give a final concentration of 100 ng/ml. Next, 20 μl of media was added to other half of the wells. The plate was then incubated for 24 hours at 37° C., 5% CO2. 100 μl of the supernatant from each well was collected for nitrite testing. 60 μl of the supernatant was collected for cytokine testing using an enzyme linked immunosorbant assay. The plates are then stored after being covered with sealer and frozen.
For the testing toxicity, the remaining media was blotted from the cell plates and 50 μl of Resazurin was added to each well (0.042 mg/ml in PBS w/Ca and Mg). The plate were then incubated for 45 mins, 37° C., 5% CO2, and for 30 minutes at room temperature. The plate was then read for Resazurin fluorescence.
50 μl/well of sulfanilamide solution (1% sulfanilamide in 5% […]) was added to supernatant plates. The plates were then incubated for 10 minutes at room temperature in the dark. Next, 50 μl/well NED solution (0.1% N-1-naphthylethylene diamine dihydrochloride in water) was added and incubated for 10 minutes at room temperature in the dark. Plates are then read for nitrite measurement and compared to a standard curve generated from the control wells.

[2] = system: cultured murine cortical neurons; test: Protection of Cultured Cortical Neurons from Excitotoxic Injury Induced by NMDA (NE Assay); type: cell-based, mice; settings: NMDA 62.5 μM, LDH release 24 hours after starting the exposure
Description: Primary cortical astrocyte cultures were prepared from one-day old mice, as described in the literature procedure (Tikka, T M et al. J Immunol. 2001 Jun. 15; 166(12):7527-33). After decapitation, the forebrain cortices were collected, cleaned from meninges and, after mincing, dissociated by incubation in papain/Dnase solution followed by trituration. The dissociated cells were suspended in a culture medium consisting of Eagle's minimal essential medium (MEM) with 10% heat-inactivated fetal bovine serum and glutamine (2 mM) and plated in 75 cm^2 cell culture flasks. The medium was replaced with fresh culture medium at day 7. At confluence (day 12-15), the astrocytes were trypsinized and re-plated into 24-well culture vessels. On day 7-8, the neurons were cultured on top of these confluent astrocyte monolayers.
Cortical neuron suspensions were prepared from embryonic day 17 mice. The cortices were collected and meninges removed. The tissue was minced into small pieces and incubated in trypsin solution. The tissue was suspended using a pipette and after centrifugation resuspended and plated on top of astrocyte cultures at a density of 250,000 cells/well to 24-well culture vessel in Eagle's minimal essential medium (MEM, Earle's salts) supplemented with 20 mM glucose, 2 mM glutamine, 10% fetal bovine serum, and 10% heat-inactivated horse serum (HS). Medium was changed after 5 days to MEM containing 20 mM glucose, 2 mM glutamine, and 10% HS, as well as cytosine arabinoside (final concentration 10 μM) to inhibit cell division, and incubated for 2 days. Subsequently, cultures were fed twice weekly with MEM supplemented with 20 mM glucose, 2 mM glutamine and 10% HS, and used at day 12-15.
On the day of experiment, the culture medium was replaced with 1) MEM, 2) MEM containing the test tetracycline compounds. Positive control drug included 10 μM MK-801 (Sigma). […] As a control for total neuronal death, a 24 hour incubation with 500 μM NMDA was used (100% cell death control).
The cell viability was assessed by measuring lactate dehydrogenase (LDH) release 24 hours after starting the exposure. The LDH release to the culture medium was measured from cell-free medium using Sigma LDH reagent employing kinetic measurement of conversion of lactate to pyruvate using NADH as a cofactor. The rate of increase in absorbance at 340 nm was directly proportional to the activity of LDH in the sample, and was measured with a Labsystems Multiskan ELISA reader.

S. aureus RN450 = test: In Vitro Anti-Bacterial Activity Assay (MIC), gram positive; type: cell-based; settings: Staphylococcus aureus, RN450, 18 h
[3] = MIC class, Table 3, read-out: Antibiotic Activity Gram −
[4] = MIC class, Table 3, read-out: Antibiotic Activity Gram +
[5] = gram negative bacteria, read-out: Antibiotic Activity Gram − (MIC)
[6] = gram positive bacteria, read-out: Antibiotic Activity Gram + (MIC)

SMILES | MIC (E. coli mL308 225; [3]) [µg/mL] | neuroprotection (cell viability by LDH release) [2] | MIC (S. aureus RN450; [4]) [µg/mL] | other results
CC(=O)Nc1cccc(-c2cc(N(C)C)c3c(c2O)C(=O)C2=C(O)[C@]4(O)C(=O)C(C(N)=O)=C(O)[C@@H](N(C)C)[C@@H]4C[C@@H]2C3)c1 [G] | > 4 | good neuroprotection | > 4 | Nitrite [1]: ○
CN(C)[C@@H]1C(O)=C(C(N)=O)C(=O)[C@@]2(O)C(O)=C3C(=O)c4c(O)ccc(-c5ccccn5)c4C[C@H]3C[C@@H]12 | – | – | – | MIC (E. coli mL308 225; [5]): < 4 µg/mL; Nitrite (inhibition of nitric oxide synthesis) [1]: 3; MIC (S. aureus RN450; [6]): < 4 µg/mL
CN(C)[C@@H]1C(O)=C(C(N)=O)C(=O)[C@@]2(O)C(O)=C3C(=O)c4c(O)c(C(C)(C)C)cc(CN)c4C[C@H]3C[C@@H]12 [IE] | > 4 | good neuroprotection | > 4 | –
C[C@H]1c2ccc(CN3CCC(C(F)(F)F)CC3)c(O)c2C(=O)C2=C(O)[C@]3(O)C(=O)C(C(N)=O)=C(O)[C@@H](N(C)C)[C@@H]3[C@@H](O)[C@@H]21 | – | – | – | MIC (E. coli mL308 225; [5]): < 4 µg/mL; Nitrite (inhibition of nitric oxide synthesis) [1]: 3; MIC (S. aureus RN450; [6]): < 4 µg/mL
CN(C)[C@H]1C(O)=C(C(N)=O)C(=O)[C@@]2(O)C(O)=C3C(=O)c4c(O)c(CN)cc(-c5ccccc5)c4C[C@H]3C[C@@H]12 [JC] | > 4 | good neuroprotection | > 4 | –
CN(C)[C@@H]1C(O)=C(C(N)=O)C(=O)[C@@]2(O)C(O)=C3C(=O)c4c(O)ccc(/C=C/C(=O)NC(C)(C)C)c4C[C@H]3C[C@@H]12 [CW] | > 4 | good neuroprotection | < 4 | –
C=C1c2cccc(O)c2C(=O)C2=C(O)[C@]3(O)C(=O)C(C(N)=O)=C(O)[C@@H](N(C)C)[C@@H]3[C@@H](O)[C@H]12 [C] | > 4 | good neuroprotection | > 4 | –
CN(C)C1C(O)=C(C(N)=O)C(=O)[C@@]2(O)C(O)=C3C(=O)c4c(O)ccc(CNCC(C)(C)C)c4C[C@H]3C[C@@H]12 (stereo partly shown) [JD] | < 4 | good neuroprotection | < 4 | –
CN(C)c1cc(NC(=O)Nc2cccc(F)c2)c(O)c2c1C[C@H]1C[C@H]3[C@@H](N(C)C)C(O)=C(C(N)=O)C(=O)[C@@]3(O)C(O)=C1C2=O [H] | > 4 | good neuroprotection | < 4 | –
CN(C)Cc1ccc(O)c2c1C[C@H]1C[C@H]3[C@@H](N(C)C)C(O)=C(C(N)=O)C(=O)[C@@]3(O)C(O)=C1C2=O [KF] | < 4 | good neuroprotection | < 4 | –
CCC(=O)O[C@H]1[C@H]2C(=C(O)[C@]3(O)C(=O)C(C(N)=O)=C(O)[C@@H](N(C)C)[C@H]13)C(=O)c1c(O)cccc1[C@@H]2C [M] | > 4 | good neuroprotection | < 4 | –
CN(C)c1cc(NCc2ccc3c(c2)OCO3)c(O)c2c1C[C@H]1C[C@H]3[C@H](N(C)C)C(O)=C(C(N)=O)C(=O)[C@@]3(O)C(O)=C1C2=O [EV] | > 4 | good neuroprotection | > 4 | –
CN(C)c1cc(-c2ccc(CN3CCCC3)o2)c(O)c2c1C[C@H]1C[C@H]3[C@H](N(C)C)C(O)=C(C(N)=O)C(=O)[C@@]3(O)C(O)=C1C2=O [LJ] | > 4 | – | > 4 | Nitrite [1]: ○
CN(C)c1cc(NC(=O)Nc2ccc([N+](=O)[O-])cc2)c(O)c2c1C[C@H]1C[C@H]3[C@@H](N(C)C)C(O)=C(C(N)=O)C(=O)[C@@]3(O)C(O)=C1C2=O [CD] | > 4 | good neuroprotection | < 4 | –
CCCOC(=O)Nc1ccc(-c2ccc(O)c3c2C[C@H]2C[C@H]4[C@H](N(C)C)C(O)=C(C(N)=O)C(=O)[C@@]4(O)C(O)=C2C3=O)cc1 | – | – | – | MIC (E. coli mL308 225; [5]): < 4 µg/mL; MIC (S. aureus RN450; [6]): < 4 µg/mL
CN(C)c1cc(CN(Cc2ccccc2)CC(F)(F)F)c(O)c2c1C[C@H]1C[C@H]3[C@H](N(C)C)C(O)=C(C(N)=O)C(=O)[C@@]3(O)C(O)=C1C2=O | – | – | – | MIC (E. coli mL308 225; [5]): > 4 µg/mL; MIC (S. aureus RN450; [6]): < 4 µg/mL
CC(C)NCc1ccc(O)c2c1C[C@H]1C[C@H]3C(N(C)C)C(O)=C(C(N)=O)C(=O)[C@@]3(O)C(O)=C1C2=O (stereo partly shown) [KK] | < 4 | – | < 4 | –
CN(C)c1cc(C#CC2(O)CCCCC2)c(O)c2c1C[C@H]1C[C@H]3[C@H](N(C)C)C(O)=C(C(N)=O)C(=O)[C@@]3(O)C(O)=C1C2=O [AN] | > 4 | – | > 4 | –
CN(C)c1ccc(-c2cc(C#CC3=CCCCC3)c(O)c3c2C[C@H]2C[C@H]4[C@H](N(C)C)C(O)=C(C(N)=O)C(=O)[C@@]4(O)C(O)=C2C3=O)cc1 [HR] | > 4 | – | > 4 | –
CC1c2ccc(C3C=CCC3)c(O)c2C(=O)C2=C(O)[C@]3(O)C(=O)C(C(N)=O)=C(O)[C@@H](N(C)C)[C@@H]3[C@@H](O)[C@@H]21 (stereo partly shown) | – | – | – | MIC (E. coli mL308 225; MIC class, Table 3 (Continued), read-out: Gram− activity): < 4 µg/mL; MIC (S. aureus RN450; MIC class, Table 3 (Continued), read-out: Gram+ activity): < 4 µg/mL
CCOc1ccc(-c2ccc(O)c3c2C[C@H]2C[C@H]4C(N(C)C)C(O)=C(C(N)=O)C(=O)[C@@]4(O)C(O)=C2C3=O)cc1CNC(=O)C(F)(F)F (stereo partly shown) [HS] | > 4 | – | < 4 | –
CN(C)c1cc(CN2CCc3ccccc3C2)c(O)c2c1C[C@H]1C[C@H]3[C@H](N(C)C)C(O)=C(C(N)=O)C(=O)[C@@]3(O)C(O)=C1C2=O | – | – | – | MIC (E. coli mL308 225; [5]): < 4 µg/mL; MIC (S. aureus RN450; [6]): < 4 µg/mL
CN(C)CCCOC(=O)/C=C/c1ccc(O)c2c1C[C@H]1C[C@H]3[C@H](N(C)C)C(O)=C(C(N)=O)C(=O)[C@@]3(O)C(O)=C1C2=O [BP] | < 4 | good neuroprotection | < 4 | –
CN(C)c1cc(NC(=O)NC(=O)c2ccccc2)c(O)c2c1C[C@H]1C[C@H]3[C@H](N(C)C)C(O)=C(C(N)=O)C(=O)[C@@]3(O)C(O)=C1C2=O [CH] | > 4 | – | < 4 | –
